US20250206730A1 (AUTOTELIC BIO INC., priority 2022, published 2025)

Tested on: TGF-β signaling
Assay: Assay for evaluating cellular inhibition of TGF-β signaling, HEK293 (SBE reporter) luciferase reporter
Type: cell-based
Details: Homo sapiens; HEK293 (SBE reporter) stable cells, 0.5% FBS, 2 h pre-treatment, TGF-β1 2 ng/mL 24 h; read-out: IC50 HEK 293 Cell
Protocol: [Example 2] Assay for Evaluating Cellular Inhibition of TGF-β Signaling
4T1 (SBE-luc2P) transient pool that have SBE-luc2P (hygro) expression plasmid or HEK293 (SBE reporter) stable cells (BPS bioscience) were seeded at 6×10^3 cells/well or 2.5×10^4 cells/well in 96-well plate, respectively. 4T1 (SBE-luc2P) transient pool were pre-treated with novel compound synthesized in Example 1 above in 0.2% FBS at approximately 60% confluence at 37° C. in 5% CO2. Also, HEK293 (SBE reporter) stable cells were pre-treated with each test compounds of formula in 0.5% FBS at approximately 80% confluence at 37° C. in 5% CO2. After 2 hours, cells were treated with TGF-β1 (2 ng/mL) for 24 h at 37° C. in 5% CO2. Cell lysates were prepared using Luciferase Assay (Promega) according to the manufacturer's instruction, and luminescence was measured by a plate reader, Biotek Synergy H1 (Vermont, USA).

| IC50 | Compound |
| --- | --- |
| < 0.1 µM | CCc1nc(-c2ccccc2)c(Oc2ccnc(Nc3ccc(C(=O)NCCN4CCCC4)cn3)c2)s1 [A-199, 6-((4-((2-Ethyl-4-phenylthiazol-5-yl)oxy)pyridin-2-yl)amino)-N-(2-(pyrrolidin-1-yl)ethyl)nicotinamide] |
| < 0.1 µM | CCc1nc(-c2ccccc2)c(Oc2ccnc(Nc3ccc(NCCN4CCN(C)CC4)cc3)c2)s1 [A-206, N^1-(4-((2-Ethyl-4-phenylthiazol-5-yl)oxy)pyridin-2-yl)-N^4-(2-(4-methylpiperazin-1-yl)ethyl)benzene-1,4-diamine] |
| < 0.1 µM | CCc1nc(-c2ccccc2)c(Oc2ccnc(Nc3ccc(-c4cn[nH]c4)cn3)c2)s1 [A-213, N-(5-(1H-Pyrazol-4-yl)pyridin-2-yl)-4-((2-ethyl-4-phenylthiazol-5-yl)oxy)pyridin-2-amine] |
| < 0.1 µM | CCc1nc(-c2ccccc2)c(Oc2ccnc(Nc3ccc(C(=O)NC(C)C)cn3)c2)s1 [A-196, 6-((4-((2-Ethyl-4-phenylthiazol-5-yl)oxy)pyridin-2-yl)amino)-N-isopropylnicotinamide] |
| < 0.1 µM | CCc1nc(-c2ccccc2)c(Oc2ccnc(Nc3ccc(C(=O)NCCN4CCN(C(C)C)CC4)cn3)c2)s1 [A-202, 6-((4-((2-Ethyl-4-phenylthiazol-5-yl)oxy)pyridin-2-yl)amino)-N-(2-(4-isopropylpiperazin-1-yl)ethyl)nicotinamide] |
| < 0.1 µM | CCc1nc(-c2ccccc2)c(Oc2ccnc(Nc3ccc(NCCN4CCN(C(C)C)CC4)cn3)c2)s1 [A-212, N^2-(4-((2-Ethyl-4-phenylthiazol-5-yl)oxy)pyridin-2-yl)-N^5-(2-(4-isopropylpiperazin-1-yl)ethyl)pyridine-2,5-diamine] |
| < 0.1 µM | CCc1nc(-c2ccccc2)c(Oc2ccnc(Nc3ccc(NCCN4CCN(C)CC4)cn3)c2)s1 [A-209, N^2-(4-((2-Ethyl-4-phenylthiazol-5-yl)oxy)pyridin-2-yl)-N^5-(2-(4-methylpiperazin-1-yl)ethyl)pyridine-2,5-diamine] |
| > 0.1 µM | CCc1nc(-c2ccccc2)c(Oc2ccnc(Nc3ccc(C(=O)O)cn3)n2)s1 [A-244, 6-((4-((2-Ethyl-4-phenylthiazol-5-yl)oxy)pyrimidin-2-yl)amino)nicotinic acid] |
| < 0.1 µM | CCc1nc(-c2ccccc2)c(Oc2ccnc(Nc3ccc(NCCN4CCCC4)cn3)c2)s1 [A-210, N^2-(4-((2-Ethyl-4-phenylthiazol-5-yl)oxy)pyridin-2-yl)-N^5-(2-(pyrrolidin-1-yl)ethyl)pyridine-2,5-diamine] |
| < 0.1 µM | CCc1nc(-c2ccccc2)c(Oc2ccnc(Nc3ccc(C(=O)NCCN4CCN(C)CC4)cn3)c2)s1 [A-201, 6-((4-((2-Ethyl-4-phenylthiazol-5-yl)oxy)pyridin-2-yl)amino)-N-(2-(4-methylpiperazin-1-yl)ethyl)nicotinamide] |
| < 0.1 µM | CCc1nc(-c2ccccc2)c(Oc2ccnc(Nc3ccc(C(=O)NCCN4CCN(CC)CC4)cn3)c2)s1 [A-203, 6-((4-((2-Ethyl-4-phenylthiazol-5-yl)oxy)pyridin-2-yl)amino)-N-(2-(4-ethylpiperazin-1-yl)ethyl)nicotinamide] |
| > 0.1 µM | CCc1nc(-c2ccccc2)c(Oc2ccnc(Nc3ccc(C(N)=O)cn3)n2)s1 [A-245, 6-((4-((2-Ethyl-4-phenylthiazol-5-yl)oxy)pyrimidin-2-yl)amino)nicotinamide] |
| < 0.1 µM | CCc1nc(-c2ccccc2)c(Oc2ccnc(Nc3ccc(NCCN4CCCC4)cc3)c2)s1 [A-208, N^1-(4-((2-Ethyl-4-phenylthiazol-5-yl)oxy)pyridin-2-yl)-N^4-(2-(pyrrolidin-1-yl)ethyl)benzene-1,4-diamine] |
| < 0.1 µM | CCc1nc(-c2ccccc2)c(Oc2ccnc(Nc3ccc(N4CCC(N)C4)cc3)c2)s1 (stereo not shown) [A-214, N-(4-(3-Aminopyrrolidin-1-yl)phenyl)-4-((2-ethyl-4-phenylthiazol-5-yl)oxy)pyridin-2-amine] |

The next lines start with the molecule.

| Compound | IC50 |
| --- | --- |
| NC(=O)c1cccc(Nc2cc(Oc3oc(C4CC4)nc3-c3ccccc3)ccn2)c1 [A-296, 3-((4-((2-Cyclopropyl-4-phenyloxazol-5-yl)oxy)pyridin-2-yl)amino)benzamide] | < 0.1 µM |
| CCc1nc(-c2cccc(C)n2)c(Oc2ccnc(Nc3ccc(C(=O)Nc4cc(F)cc(C(=O)OCCN(C)C)c4)cn3)c2)s1 [A-273, 2-(Dimethylamino)ethyl 3-(6-((4-((2-ethyl-4-(6-methylpyridin-2-yl)thiazol-5-yl)oxy)pyridin-2-yl)amino)nicotinamido)-5-fluorobenzoate] | > 0.1 µM |
| CNC(=O)c1cccc(Nc2cc(Oc3oc(C4CC4)nc3-c3ccccc3)ccn2)n1 [A-302, 6-((4-((2-Cyclopropyl-4-phenyloxazol-5-yl)oxy)pyridin-2-yl)amino)-N-methylpicolinamide] | < 0.1 µM |
| CNC(=O)c1cccc(Nc2cc(Oc3oc(C4CC4)nc3-c3ccccc3)ccn2)c1 [A-297, 3-((4-((2-Cyclopropyl-4-phenyloxazol-5-yl)oxy)pyridin-2-yl)amino)-N-methylbenzamide] | < 0.1 µM |
| NC(=O)c1cccc(Nc2cc(Oc3oc(C4CC4)nc3-c3ccccc3)ccn2)n1 [A-299, 6-((4-((2-Cyclopropyl-4-phenyloxazol-5-yl)oxy)pyridin-2-yl)amino)picolinamide] | < 0.1 µM |
| CCc1nc(-c2cccc(C)n2)c(Oc2ccnc(Nc3cccc(NS(C)(=O)=O)c3)c2)s1 [A-272, N-(3-((4-((2-ethyl-4-(6-methylpyridin-2-yl)thiazol-5-yl)oxy)pyridin-2-yl)amino)phenyl)methanesulfonamide] | < 0.1 µM |
| CNC(=O)c1cccc(Nc2cc(Oc3sc(C4CC4)nc3-c3cccc(C)n3)ccn2)c1 [A-281, 3-((4-((2-Cyclopropyl-4-(6-methylpyridin-2-yl)thiazol-5-yl)oxy)pyridin-2-yl)amino)-N-methylbenzamide] | < 0.1 µM |
| CCc1nc(-c2ccccc2)c(Oc2ccnc(Nc3ccc(C(=O)O)cc3)n2)s1 [A-246, 4-((4-((2-Ethyl-4-phenylthiazol-5-yl)oxy)pyrimidin-2-yl)amino)benzoic acid] | < 0.1 µM |
| CNC(=O)c1ccc(Nc2cc(Oc3sc(C4CC4)nc3-c3cccc(C)n3)ccn2)nc1 [A-282, 6-((4-((2-Cyclopropyl-4-(6-methylpyridin-2-yl)thiazol-5-yl)oxy)pyridin-2-yl)amino)-N-methylnicotinamide] | < 0.1 µM |
| CCc1nc(-c2ccccc2)c(Oc2ccnc(Nc3ccc(N4CCC(NC)C4)cc3)c2)s1 (stereo not shown) [A-215, 4-((2-Ethyl-4-phenylthiazol-5-yl)oxy)-N-(4-(3-(methylamino)pyrrolidin-1-yl)phenyl)pyridin-2-amine] | < 0.1 µM |
| CCc1nc(-c2ccccc2)c(Oc2ccnc(Nc3cccc(C(N)=O)n3)n2)s1 [A-241, 6-((4-((2-Ethyl-4-phenylthiazol-5-yl)oxy)pyrimidin-2-yl)amino)picolinamide] | < 0.1 µM |
| O=C(O)c1cccc(Nc2cc(Oc3oc(C4CC4)nc3-c3ccccc3)ccn2)n1 [A-301, 6-((4-((2-Cyclopropyl-4-phenyloxazol-5-yl)oxy)pyridin-2-yl)amino)picolinic acid] | < 0.1 µM |
| NS(=O)(=O)c1cccc(Nc2cc(Oc3oc(C4CC4)nc3-c3ccccc3)ccn2)c1 [A-298, 3-((4-((2-Cyclopropyl-4-phenyloxazol-5-yl)oxy)pyridin-2-yl)amino)benzenesulfonamide] | < 0.1 µM |
| CCc1nc(-c2ccccc2)c(Oc2ccnc(Nc3cc(C(N)=O)ccn3)n2)s1 [A-242, 2-((4-((2-Ethyl-4-phenylthiazol-5-yl)oxy)pyrimidin-2-yl)amino)isonicotinamide] | > 0.1 µM |
